# Source: patent US20220072095A1, “METHODS AND COMPOSITIONS FOR TREATING SKIN DISEASES” (VANDERBILT UNIVERSITY, priority 2018, published 2022)
# Bridge positions count the residues as written; N and C are the ends. Peptide text beside a SMILES is read from it.
# Columns and labels:
# [1] = Solubility of NTM peptides; type: physicochemical; conditions: cSN50: depending on the method of synthesis and purification; read-out: soluble at levels of
# Experimental: cSN50.1 is a cyclized peptide having the sequence of cSN50 with the exception that the tyrosine at position 18 of cSN50, adjacent to the first cysteine, has been removed. Methods of making and using cSN50 are described, for example, in U.S. Pat. Nos. 7,553,929 and 6,495,518. The amino acid sequence of cSN50.1 is […] (SEQ ID NO: 2). The tyrosine at position 18 was removed from the sequence of cSN50 to increase solubility. cSN50 is soluble at levels of ranging from 2.0 mg/mL to 40 mg/mL depending on the method of synthesis and purification whereas cSN50.1 is soluble at levels of at least 100 mg/ml. Any mimetics, derivatives, or homologs of cSN50.1 may be used in the compositions, methods, and kits disclosed herein. cSN50.1 is also encompassed by SEQ ID NO: 3, SEQ ID NO: 4 and SEQ ID NO: 5. Additional examples of NTMs include fragment-designed and synthesized peptides in which cargo is incorporated as two, rather than one, modules or cargos derived from intracellular proteins other than NFκB 1. Such additional examples include the sequences of SEQ ID NO: 6, SEQ ID NO: 7, SEQ ID NO: 8, and SEQ ID NO: 9.
# Imp beta = Imp beta (Homo sapiens, UniProt Q14974); conditions: cell culture and preclinical studies
# Sequence of Imp beta (Q14974 whole entry, looked up): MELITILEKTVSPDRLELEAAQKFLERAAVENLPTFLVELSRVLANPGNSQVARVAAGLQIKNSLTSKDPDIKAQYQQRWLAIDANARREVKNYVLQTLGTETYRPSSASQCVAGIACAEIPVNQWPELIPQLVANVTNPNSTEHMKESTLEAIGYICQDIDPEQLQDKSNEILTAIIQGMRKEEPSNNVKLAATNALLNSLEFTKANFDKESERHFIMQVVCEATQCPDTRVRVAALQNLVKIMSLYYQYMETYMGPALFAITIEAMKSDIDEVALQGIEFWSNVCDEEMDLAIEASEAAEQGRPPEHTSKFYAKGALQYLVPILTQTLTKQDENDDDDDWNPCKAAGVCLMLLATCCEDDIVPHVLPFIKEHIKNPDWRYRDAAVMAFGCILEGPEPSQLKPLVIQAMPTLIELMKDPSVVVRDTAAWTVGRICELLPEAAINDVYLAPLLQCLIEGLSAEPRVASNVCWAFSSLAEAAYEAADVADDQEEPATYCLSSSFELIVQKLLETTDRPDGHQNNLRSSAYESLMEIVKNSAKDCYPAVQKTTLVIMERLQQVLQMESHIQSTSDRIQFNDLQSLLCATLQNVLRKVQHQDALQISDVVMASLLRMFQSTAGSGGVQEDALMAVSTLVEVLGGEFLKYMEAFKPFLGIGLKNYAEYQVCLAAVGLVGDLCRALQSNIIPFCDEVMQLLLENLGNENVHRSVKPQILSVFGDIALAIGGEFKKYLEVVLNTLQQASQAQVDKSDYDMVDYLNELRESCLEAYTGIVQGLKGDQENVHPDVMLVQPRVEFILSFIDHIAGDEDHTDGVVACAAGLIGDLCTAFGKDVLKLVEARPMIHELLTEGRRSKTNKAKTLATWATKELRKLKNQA
Compound,solubility [1],importin selectivity (Comments) (Imp beta)
CSCC[C@@H]1NC(=O)[C@H](CC(C)C)NC(=O)[C@H](CCCCN)NC(=O)[C@H](CCC(N)=O)NC(=O)[C@H](CCCNC(=N)N)NC(=O)[C@H](CCCCN)NC(=O)[C@H](CCCNC(=N)N)NC(=O)[C@H](CCC(N)=O)NC(=O)[C@H](C(C)C)NC(=O)[C@@H](NC(=O)[C@@H]2CCCN2C(=O)[C@H](C)NC(=O)[C@H](CC(C)C)NC(=O)[C@H](CC(C)C)NC(=O)[C@H](C)NC(=O)[C@H](CC(C)C)NC(=O)[C@H](CC(C)C)NC(=O)[C@@H](NC(=O)[C@H](C)NC(=O)[C@@H]2CCCN2C(=O)[C@H](CC(C)C)NC(=O)[C@H](CC(C)C)NC(=O)[C@H](C)NC(=O)[C@@H](NC(=O)[C@H](C)NC(=O)[C@H](C)N)C(C)C)C(C)C)CSSC[C@@H](C(=O)O)NC(=O)[C@@H]2CCCN2C1=O [cSN50.1] (H-AAVALLPAVLLALLAPCVQRKRQKLMPC-OH; disulfide 17-28; N-terminus and C-terminus assumed),≥ 100 mg/mL,–
AAVALLPAVLLALLAPCVQRDEQKLMPC [cSN50.1β],–,Imp beta-selective
CSCC[C@@H]1NC(=O)[C@H](CC(C)C)NC(=O)[C@H](CCCCN)NC(=O)[C@H](CCC(N)=O)NC(=O)[C@H](CCCNC(=N)N)NC(=O)[C@H](CCCCN)NC(=O)[C@H](CCCNC(=N)N)NC(=O)[C@H](CCC(N)=O)NC(=O)[C@H](C(C)C)NC(=O)[C@H](Cc2ccc(O)cc2)NC(=O)[C@@H](NC(=O)[C@@H]2CCCN2C(=O)[C@H](C)NC(=O)[C@H](CC(C)C)NC(=O)[C@H](CC(C)C)NC(=O)[C@H](C)NC(=O)[C@H](CC(C)C)NC(=O)[C@H](CC(C)C)NC(=O)[C@@H](NC(=O)[C@H](C)NC(=O)[C@@H]2CCCN2C(=O)[C@H](CC(C)C)NC(=O)[C@H](CC(C)C)NC(=O)[C@H](C)NC(=O)[C@@H](NC(=O)[C@H](C)NC(=O)[C@H](C)N)C(C)C)C(C)C)CSSC[C@@H](C(=O)O)NC(=O)[C@@H]2CCCN2C1=O [cSN50] (H-AAVALLPAVLLALLAPCYVQRKRQKLMPC-OH; disulfide 17-29; N-terminus and C-terminus assumed),2 to 40 mg/mL,–
